Results taken from article PMC10714930, “In silico virtual screening for the identification of novel inhibitors against dihydrodipicolinate reductase (DapB) of Mycobacterium tuberculosis, a key enzyme of diaminopimelate pathway” (Microbiology Spectrum, 2023).
≈ marks a conversion by molar mass, not a printed value.

Legend:
[1] = target: DapA and DapB (purified enzymes) (Mycobacterium tuberculosis, UniProt P9WP25); type: biochemical; details: coupled enzyme assay, Michaelis-Menten plot
M. tb DapB = M. tb DapB (Mycobacterium tuberculosis, UniProt P9WP23); assay: Dihydrodipicolinate reductase (DapB)-coupled enzymatic assay; type: biochemical
Chain of M. tb DapB (P9WP23 whole entry, looked up): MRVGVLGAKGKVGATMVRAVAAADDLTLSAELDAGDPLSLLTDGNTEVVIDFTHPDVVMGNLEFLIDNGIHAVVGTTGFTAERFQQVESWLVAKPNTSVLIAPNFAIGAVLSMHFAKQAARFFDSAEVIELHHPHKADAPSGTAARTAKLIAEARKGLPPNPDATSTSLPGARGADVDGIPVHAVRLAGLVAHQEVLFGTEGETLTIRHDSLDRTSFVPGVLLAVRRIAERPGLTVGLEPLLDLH
Experimental: The enzymatic assay of DapB is a coupled assay which requires the upstream enzyme DapA. The formation of tetrahydrodipicolinate by DapB was measured by monitoring conversion of NADPH to NADP^+ spectrophotometrically at 340 nm. The substrate of DapB, i.e., 2,4-dihydrodipicolinic acid, was prepared enzymatically through condensation of Aspartate Semialdehyde [(S)-ASA] and sodium pyruvate by DapA. The standard assay was performed in 50 mM sodium phosphate buffer (pH 7.5) consisting of 400 µM (S)-ASA, 160 µM NADPH, 500 µM sodium pyruvate, 3 µg DapB, and 5 µg DapA in a total reaction volume of 100 µL. […] The decrease in the absorbance of NADPH corresponding to the consumption of substrate was monitored at 340 nm after incubation for 10 minutes at room temperature. […] The activity of DapB in the presence of compounds was measured similarly; however, the enzyme was pre-incubated with the compounds for 10 minutes at 37°C. The percent activity for the samples in the presence of inhibitors was calculated by using a two-step method. Firstly, the absorbance values at 340 nm for each test sample (with or without the inhibitor) were normalized with the negative control (no substrate control). Subsequently, the percent activity was calculated by using the formula (normalized A340nm of inhibitor sample/normalized A340nm of no inhibitor sample) × 100. […]

M. tb H37Rv [2] = assay: M. tb whole cell growth inhibition by resazurin microtiter assay; type: cell-based, Mycobacterium tuberculosis
M. tb H37Rv [3] = assay: Checkerboard assay of B59 with B20; type: cell-based, Mycobacterium tuberculosis
[4] = tested on: M. tb H37Rv inside THP-1 macrophages; assay: Intracellular inhibition assay in THP-1 macrophages; type: cell-based; details: Mycobacterium tuberculosis, 120 h, CFU enumeration after 5 days of infection
mycobacterial DapB = tested on: mycobacterial DapB; parameters: method as in PMID 12962488; details: cited from earlier work

Chain of DapA and DapB (purified enzymes) (P9WP25 whole entry, looked up): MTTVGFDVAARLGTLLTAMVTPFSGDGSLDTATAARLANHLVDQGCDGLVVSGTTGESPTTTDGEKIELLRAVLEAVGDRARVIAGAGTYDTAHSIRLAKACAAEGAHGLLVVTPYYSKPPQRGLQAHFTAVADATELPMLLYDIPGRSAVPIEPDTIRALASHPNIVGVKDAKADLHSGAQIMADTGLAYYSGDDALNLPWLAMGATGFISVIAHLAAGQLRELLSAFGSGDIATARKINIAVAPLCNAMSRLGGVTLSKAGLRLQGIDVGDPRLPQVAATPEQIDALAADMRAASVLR

N[C@@H](CC=O)C(=O)O [ASA, L-aspartate-β-semialdehyde] showed a Km [1] of 345 µM.

With COC(=O)CCCc1nc2ccccc2nc1N=Nc1ccccc1 [Compound B59, 4-(3-Phenylazoquinoxalin-2-yl) butanoic acid methyl ester] the IC50 (M. tb DapB; IC50 exhibited by compounds in biochemical assay, DapB enzymatic activity, compounds 10-100 µg/mL) was 32.9 µM, the inhibition at 100 µg/mL (M. tb DapB; at 100 µg/mL, read-out: inhibition of DapB enzyme activity) was greater than 80% and the “MIC99 exhibited by compounds against M. tb growth” value (M. tb H37Rv [2]; M. tb H37Rv, 7 days, resazurin and drop plating) was 20 µg/mL (≈ 59.8 µM). For the same compound, the MIC99 (M. tb H37Rv [2]; Mycobacterium tuberculosis, 168 h, M. tb H37Rv, 7 days, resazurin and drop plating, read-out: MIC99 exhibited by compounds against M. tb growth) was 20 µg/mL (≈ 59.8 µM), the “effect on bacterial growth by CFU enumeration” value (M. tb H37Rv [2]; at 0.5X MIC99 and 0.25X MIC99) was “inhibition of the bacterial growth” and the “fractional inhibitory concentration (FIC)” value (M. tb H37Rv [3]; MIC99 in combination / MIC99 alone) was 0.062. For the same compound, the “MIC99 of B59 in combination” value (M. tb H37Rv [3]; in the presence of 20 µg/mL of compound B20) was 1.25 µg/mL and the MIC90 [4] was 73 µg/mL (≈ 218 µM).

In the case of NC(=O)C1=CN([C@@H]2O[C@H](COP(=O)(O)OP(=O)(O)OC[C@H]3O[C@@H](n4cnc5c(N)ncnc54)[C@H](O)[C@@H]3O)[C@@H](O)[C@H]2O)C=CC1 [NADH], the Km (mycobacterial DapB) is given as 3.2 ± 0.4 µM.

In the case of NC(=O)C1=CN([C@@H]2O[C@H](COP(=O)(O)OP(=O)(O)OC[C@H]3O[C@@H](n4cnc5c(N)ncnc54)[C@H](OP(=O)(O)O)[C@@H]3O)[C@@H](O)[C@H]2O)C=CC1 [NADPH], the Km (mycobacterial DapB) is listed as 11.8 ± 1.5 µM.

CC(=O)C(=O)O [sodium pyruvate] showed a Km [1] of 125 µM.
